Data set [1] concerns tube formation of human-derived vascular endothelial cells (HUVEC). Briefly: Tube formation inhibition test (angiogenesis assay kit, KURABO). The format is cell-based. Conditions: 264 h, final concentration 6.4 nM, 11 days, read-out: Tube formation inhibition ratio (%). The protocol: The formed tubes were stained with a tube staining kit CD31 (KURABO). The stain image of each well was taken under a microscope, stored in an image file, and measured for the tube formation area using angiogenesis quantitative analysis software of KURABO. The inhibition ratio % of each test compound added to the well was calculated, provided that the ratio of the reference was 100%.

The nature of data set [2]: Solubility in fasted state simulated intestinal fluid. Format: physicochemical. Conditions: pH 6.5, fassif, kinetic from dmso stock, fasted state simulated intestinal fluid (pH6.5), 37° C. The protocol: 2 μL of each dimethyl sulfoxide solutions containing test compounds were dispensed into wells of a 96-well plate, and 200 μL of fasted state simulated intestinal fluid (pH6.5) was added to each well. The plate was shaken at 37° C. for 20 hours. The solution was filtered through a membrane filter, and 101 μL of the filtrate was transferred to a UV plate, followed by addition of 100 μL of a solution mixture of ethanol:water=2:1 thereto. Separately, as a standard, 101 μL of a solution prepared by 2 μL of a dimethyl sulfoxide solution, 4 μL of dimethyl sulfoxide, 400 μL of ethanol, and 200 μL of water was transferred to a UV plate, and 100 μL of fasted state simulated intestinal fluid (pH6.5) was added thereto. The solubility was calculated by the following expression: Solubility=[(absorbance of test solution)−blank]/[(absorbance of standard solution)−blank]×165 μM (165 μM is the concentration of the standard solution) Composition of the fasted state simulated intestinal fluid (pH6.5)
The composition was prepared in compliance with the description in E. Galia, et al., Pharm. Res. 1998, 698.
Taurocholic acid (161 mg), L-α-phosphatidylcholine (59 mg), potassium dihydrogen phosphate (0.39 g), and potassium chloride (0.77 g) were added to about 90 mL of water. The resulting solution was adjusted to a pH of 6.5 with a sodium hydroxide aqueous solution and then diluted to a volume of 100 mL with water. The solution was filtered through a membrane filter.

The test system of data set [3] is choroidal neovascularization. Briefly: Laser coagulation-induced murine choroidal neovascularization model. The format is in vivo, C57BL6J mice. Conditions: for Average FA score: once a day for three days. As to the method:
Laser coagulation was performed on two- to three-month-old C57BL6J mice (ten mice per group) by using a 408 nm semiconductor laser (DC-3000, Nidek). Both eyes were each irradiated at three positions with a spot size of 170 μm, an exposure time of 0.02 sec, and an output of 200 mW. The drug was orally administered once a day for three days beginning on the day of the laser coagulation. On the next day of the last administration, the mice were intravenously injected with 7 mg/kg of fluorescein. Five minutes after the injection, three fluorescent fundus images of each eye were taken (TRC-501X, Topcon) and stored in a CCD camera having 640×480 pixels as an image file. The total pixel brightness (0 to 1) in regions where fluorescein leakage was detected was used as an index (FA score) of choroidal neovascularization activity. The FA score was calculated by defining reference values such that the pixel brightness in a capillary region of a non-coagulated site is 0 and the pixel brightness on a main branch of the retinal blood vessel is 1.

Data set [4] is described as follows: Pharmacokinetics test, oral administration. The format is in vivo. Conditions: female, Balb/c nude, mouse, 100 mg/kg, plasma. As to the method:
The compound according to the present invention and known Compound A were measured for pharmacokinetics. Each of the test compounds was orally administered to each female Balb/c nude mouse at a dose of 100 mg/kg, and concentrations of the compound in plasma 0.5, 2, 7, and 24 hours after the administration were quantitatively measured by LC-MS-MS.

Data set [5] concerns human umbilical vein endothelial cells (HUVEC), VEGF-dependent proliferation. Briefly: VEGF-dependent HUVEC proliferation inhibition assay. To be noted: read-out: 50% proliferation inhibitory concentration (IC50 value) HUVEC (VEGF-dependent), 20 ng/mL of VEGF, 72 hours, WST-1. Format: cell-based. As to the method:
(§1) The compounds according to the present invention were measured for cancer cell proliferation inhibitory activity and human umbilical vein endothelial cell (HUVEC) proliferation inhibitory activity.
(§2) Test compounds were serially diluted with dimethyl sulfoxide and then diluted 50 times with Ca^2+- and Mg^2+-free phosphate-buffered saline, and 20 μL of each of the resulting solution was dispensed into a 96-well plate. […] Each cell suspension contains approximately 3000 cells/180 μL. These cell suspensions were dispensed to the plate containing the test compounds at 180 μL/well and incubated in a 5% carbon dioxide gas incubator at 37° C. for 72 hours. 20 μL of WST-8 (HCT116, Dojin) or WST-1 (HUVEC, Roche Diagnostics) was added to each well, and absorbance at 450 nm (reference wavelength: 650 nm) was measured.

The subject of data set [6] is human colon cancer cell line HCT116 cells. Briefly: Antitumor test, HCT116 transplanted subcutaneously in nude mice. Format: in vivo, female Balb/c nude mouse. To be noted: 100 mg/kg oral, once a day for 12 days. As to the method:
A cell suspension of human colon cancer cell line HCT116 cells was prepared using Hanks's solution, and 5.0×10^6 cells thereof were transplanted subcutaneously into the flank of each female Balb/c nude mouse. Oral administration of the test compound (once a day for 12 days) was started when the transplanted tumor volume reached 200 to 250 mm^3. The tumor volume was calculated by the expression: 0.5×(minor axis)^2×(major axis). The tumor growth inhibition ratio of tumor growth of the test compound to tumor growth of the reference group was determined.

For data set [7], the system named is human umbilical vein endothelial cells (HUVEC), VEGF-independent proliferation. Nature of the data set: VEGF-independent HUVEC proliferation inhibition assay. Format: cell-based. To be noted: read-out: 50% proliferation inhibitory concentration (IC50 value) HUVEC (VEGF-independent), vascular endothelial cell growth-promoting agent and heparin, 72 hours, WST-1. The protocol: as §1, §2

For data set [8], the system named is human colon cancer cell line HCT116 cells. Nature of the data set: Cell proliferation inhibitory activity, HCT116. The format is cell-based. To be noted: Homo sapiens, HCT-116, read-out: 50% proliferation inhibitory concentration (IC50 value) HCT116; HCT116, 72 hours, WST-8. The protocol:
as §1, §2
In general terms: Tetrazolium dyes change colour on reduction, which living cells bring about.

≈ marks a conversion by molar mass, not a printed value.

The solubility is how much of the substance goes into solution per volume. Low readings indicate little dissolved substance, high ones much dissolved substance. The AUC is concentration integrated over time. In general, Cmax refers to the maximum level reached in the sampled fluid or tissue. In the case of `O=C(Nc1ccc(Oc2ccnc3[nH]ccc23)cc1)Nc1ccc(CCC(F)F)c(C(F)(F)F)c1` [Compound 12, 1-[4-(3,3-Difluoropropyl)-3-(trifluoromethyl)phenyl]-3-[4-(1H-pyrrolo[2,3-b]pyridin-4-yloxy)phenyl]urea], the inhibition at 0.0064 µM in data set [1] worked out at 81%. The same compound showed a solubility at 20 h in data set [2] of 15 µg/mL (≈ 30.6 µM). Also, the “inhibition of the angiogenesis (in words)” value in data set [3] (50 mg/kg) and in data set [3] (100 mg/kg) was “significantly inhibited” in each case. Besides, the “Average FA score” value worked out at 6.910 in data set [3] (50 mg/kg oral) and 6.833 in data set [3] (100 mg/kg oral). Also, the AUC in data set [4] was found to be 247 µg·h/mL. Also, the Cmax in data set [4] came out at 22700 ng/mL. Besides, the figures for the IC50 in data set [5], in data set [7] and in data set [8] were 5.1 nM, 270 nM and 2600 nM, respectively. The “Tumor growth inhibition ratio (%)” value in data set [6] (last administration day) stood at 100%. The “Decrease ratio in body weight (%)” value in data set [6] (maximum decrease) came out at 6.5%.
Compound `CNC(=O)c1cc(Oc2ccc(NC(=O)Nc3ccc(Cl)c(C(F)(F)F)c3)cc2)ccn1` [Compound A, BAY 43-9006, reference compound] came in with a solubility at 20 h in data set [2] of 6 µg/mL (≈ 12.9 µM). For the same compound, the “inhibition of the angiogenesis (in words)” value in data set [3] (100 mg/kg) was “did not significantly inhibit”. The “Average FA score” value in data set [3] (100 mg/kg oral) turned out to be 7.258. Besides, in data set [4], the exposure (AUC) was determined as 189 µg·h/mL and the peak concentration (Cmax) was determined as 19200 ng/mL.

Source of the values: US8299252B2, “Pyrazolopyridine and pyrrolopyridine multikinase inhibitors” (Chugai Seiyaku Kabushiki Kaisha, priority 2005, dated 2012).
